Tests used:
VSMC cells = assay: VSMC incubated in vitro with TGF-β1 or pirfenidone (PFD): Western blot, ELISA, RT-PCR; format: cell-based; settings: for level of AGGF1: Western blot, treatment 2 days and 4 days
Method: The VSMCs are starved for 12 hours prior to stimulation with TGF-β1. […] Normalized to β-actin. *, P<0.05; **, P<0.01; ***, P<0.001; n≥4/group for the study.
In FIG. 11, we used VSMC in vitro incubated with TGF-β1 and pirfenidone (PFD). […] In FIG. 12, we used Aggf1 systemic knockout mice for experiments.

[1] = system: TAC-induced carotid artery dilation, remodeling, and inflammation; assay: Pirfenidone in TAC model in WT and Aggf1+/- mice; format: in vivo; settings: for level of AGGF1 in the RCA / level of p-ERK1/2 in the RCA / level of p-Smad3 in the RCA: Western blot; for expansion of the right carotid artery / ratio of the flow velocity between right/left carotid: 3 weeks after TAC; for right carotid artery inflammation (MCP1 and CD68) / right carotid artery vascular remodeling (H&E staining, Sirius red and αSMA): after TAC
Excerpt: The bar graphs below show the intimal thickness (1st graph), the adventitia thickness (2nd graph), the total carotid artery wall thickness (3rd graph), the medial cell density (4th graph), and the adventitia cell density (5th graph). […] The bar graphs on the right show the percentage of the positive area for the respective immunostaining quantification. […] The GAPDH serves as a loading control. *, P<0.05; **, P<0.01; ***, P<0.001; n=5/group for mouse studies, other sample sizes n=4/group. In FIG. 11, we used VSMC in vitro incubated with TGF-β1 and pirfenidone (PFD). […] In FIG. 12, we used Aggf1 systemic knockout mice for experiments.

[2] = Aggf1 heterozygous knockout mice (Aggf1+/-)

Molecule	mRNA levels of Tgfb1 and Tgfb2 (VSMC cells; RT-PCR, after 2 days)	synthesis of the mature TGF-β1 (VSMC cells; Western blot 2 and 4 days, ELISA 2 days)	level of AGGF1 (VSMC cells)	level of AGGF1 in the RCA ([1]; Aggf1+/- mice after TAC)	level of p-ERK1/2 in the RCA ([1]; Aggf1+/- mice after TAC)	level of p-Smad3 in the RCA ([1]; Aggf1+/- mice after TAC)	expansion of the right carotid artery [1, 2]	ratio of the flow velocity between right/left carotid [1, 2]	right carotid artery inflammation (MCP1 and CD68) [1, 2]	right carotid artery vascular remodeling (H&E staining, Sirius red and αSMA) [1, 2]	level of AGGF1 in the RCA ([1]; WT mice after TAC)	level of p-ERK1/2 in the RCA ([1]; WT mice after TAC)	level of p-Smad3 in the RCA ([1]; WT mice after TAC)	expansion of the right carotid artery ([1]; WT mice)	ratio of the flow velocity between right/left carotid ([1]; WT mice)	right carotid artery inflammation (MCP1 and CD68) ([1]; WT mice)	right carotid artery vascular remodeling (H&E staining, Sirius red and αSMA) ([1]; WT mice)
Cc1ccc(=O)n(-c2ccccc2)c1 [PFD, pirfenidone]	no effect	inhibited	increased	did not have this effect	did not have this effect	did not have this effect	did not possess such effects	did not possess such effects	did not possess such effects	did not possess such effects	significantly increase	reduce	reduce	significantly reduce	significantly reduce	significantly reduce	significantly reduce
TGF-β1: TGF-β1 used to stimulate VSMC cells in vitro	–	–	inhibit	–	–	–	–	–	–	–	–	–	–	–	–	–	–

From patent US20260209294A1, “USE OF RECOMBINANT PROTEIN IN PREPARING DRUG FOR INHIBITING ANEURYSM” (HUAZHONG UNIVERSITY OF SCIENCE AND TECHNOLOGY, priority 2022, published 2026)
